Laboratory results: US4020164A, “Benzomorphan derivatives” (priority 1972, dated 1977)
“Also recorded” adds a separate entry of the source. Counter-ions that a name gives are not always drawn. Like-named read-outs stand apart in the source and are kept apart here.

Assays:
apomorphine = test: Apomorphine antagonism test; assay type: in vivo, mice; details: for apomorphine-antagonistic activity compared with cyclazocine and pentazocine: vs. cyclazocine and pentazocine; for apomorphine-antagonistic activity compared with haloperidol: vs. haloperidol; for ED50, Apomorphine Antagonism: mouse, in vivo, 1.56 mg/kg; for ED50: read-out: ED50, Apomorphine Antagonism
Procedure: (§1) The pharmacological investigations were conducted on mice weighing 20-22 g. or on rats weighing 80-110 g. Unless indicated otherwise, the test substances were administered in the form of the hydrochloride acid addition salt thereof in an isotonic NaCl solution, and the animals were examined 30 minutes after subcutaneous (sc) application. The injection volume was respectively 5 ml./kg. of body weight. 10-40 controls animals were used in each experiment. The test and control solutions were administered in accordance with a randomized injection schedule. Seven logarithmically spaced dosages were employed of each test substance. The effective dose (ED) was calculated by probit analysis (Finney, D. J., "Probit Analysis," Cambridge University Press, 2nd Edition, Cambridge 1957). ED50 figures were rounded.
The criterion for antagonistic effect was the absence of stereotyped movements within an observation period of one minute.

phenylquinone [1] = test: Writhing test, acute (phenylquinone writhing, analgesic activity); assay type: in vivo; details: mice; for ED50, writhing test, acute p.o., 10 min. p.i. / ED50, writhing test, acute p.o., 30 min. p.i. / ED50, writhing test, acute s.c., 10 min. p.i. / ED50, writhing test, acute s.c., 30 min. p.i. / ED50: phenylquinone 2 mg/kg i.p., hydrochloride, acute; for potency in writhing test compared with cyclazocine: vs. cyclazocine; for potency in writhing test compared with morphine: vs. morphine; for potency in writhing test compared with pentazocine: vs. pentazocine
Procedure: as §1
(§2) In the acute test, the test compounds were administered perorally (p.o.) or subcutaneously (s.c.) to mice. Eight mice were used per dose. Seven minutes prior to the testing, the animals received 2 mg./kg. of phenylquinone intraperitoneally. […] The criterion for protective effect was absence of writhes during the eighth minute after phenylquinone administration.

morphine [2] = system: morphine; set-up: species or system mice; details: mouse, in vivo; for ED50, Morphine Antagonism-Tail-Flick Test, Mice: 12.5 mg/kg
morphine [3] = test: Precipitated Withdrawal Jumping Test (morphine antagonism in morphine-dependent mice); assay type: in vivo
Procedure: as §1
The test compound was given to dose groups of 8 animals. The antagonist-precipitated withdrawal jumping frequencies were recorded during three 5-minute observation intervals uniformly distributed over 30 minutes after administration of the test compound. […] The criterion for a precipitating effect is a mean jumping frequency of >1/minute.

morphine [4] = test: animal or person; assay type: in vivo, rats; details: for ED50, Morphine Antagonism-Tail-Flick Test, Rats: 6.25 mg/kg
electroshock = test: Maximal electroshock test; assay type: in vivo; details: mice; for ED50, Maximal Electroshock Test / ED50: 16 mA/50 c.p.s., 0.2 second, transcorneal, absence of tonic extensor cramp of hind limbs, 30 min; for ED50, Maximal Electroshock Test: s.c.; for ED50: Mus musculus, sc, 0.5 h
Procedure: 10-40 controls animals were used in each experiment. […] ED50 figures were rounded.
In the maximum electroshock test, the test substances were administered to dose groups of 6 mice. Sinusoidal pulses of 16 milliamperes/50 c.p.s. [Hertz] and 0.2 second duration were delivered transcorneally via silver electrodes. The shock intensity used elicits nonlethal tonic-clonic convulsions in control animals (p <0.01, N = 192). The criterion for protective effect was the absence of the tonic extensor cramp of the hind limbs after shock application (modified test according to Swinyard et al., J. Pharmacol. Exp. Ther. 106, 319, 1952).

phenylquinone [5] = details: mice; s.c.; 30 min p.i.; 25 hours after last injection of 64-hour pretreatment, total 550 mg/kg
Procedure: as §1, §2
In the subchronic test, the same test was performed 25 hours after the last injection of a 64-hour pretreatment period, with the test compound being administered subcutaneously. During the pretreatment period, the subjects received a total of 550 mg/kg. of the test compound, with the test compound being injected over a period of 22 hours in 4 increasing dosages in salt form, and over an additional 42 hours in 2 identical dosages in free base form in sesame oil.

[6] = J. Pharmacol. Exp. Ther. 144, 12, 1964; Clin. Pharmacol. Ther. 11:1, 41, 1970; cited from earlier work
[7] = p.o., 10 min p.i., ED50 rounded
[8] = p.o., 30 min p.i., ED50 rounded
[9] = s.c., 10 min p.i., ED50 rounded
[10] = s.c., 30 min p.i., * = significant difference between acute and subchronic ED50 (p < 0.001)
[11] = morphine-dependent mice, criterion mean jumping frequency >1/minute

## CC1C2Cc3ccc(O)cc3C1(C)CCN2CC(C)(C)O (single isomer, unassigned; (-)) [Compound B, (-)-2'-hydroxy-2-(2-hydroxy-2-methylpropyl)-5,9-dimethyl-6,7-benzomorphan]
apomorphine; mice
  apomorphine-antagonistic activity compared with cyclazocine and pentazocine: markedly stronger activity than cyclazocine and pentazocine
  apomorphine-antagonistic activity compared with haloperidol: only slightly weaker effectiveness than haloperidol
apomorphine; sc
  ED50, Apomorphine Antagonism: 0.3 mg/kg
Phenylquinone [1]; [7]
  ED50, writhing test, acute p.o., 10 min. p.i.: 5 mg/kg
Phenylquinone [1]; [8]
  ED50, writhing test, acute p.o., 30 min. p.i.: 10 mg/kg
Phenylquinone [1]; [9]
  ED50, writhing test, acute s.c., 10 min. p.i.: 0.05 mg/kg
Phenylquinone [1]; [10]
  ED50, writhing test, acute s.c., 30 min. p.i.: 0.4 mg/kg
Phenylquinone [1]
  potency in writhing test compared with cyclazocine: at least equipotent with cyclazocine
  potency in writhing test compared with morphine: more potent than morphine
  potency in writhing test compared with pentazocine: appreciably more potent than pentazocine
Morphine [2]
  morphine-antagonistic activity, tail-flick test (in words), mice: marked activity
Morphine [2]; sc
  ED50, Morphine Antagonism-Tail-Flick Test, Mice: 5 mg/kg
Morphine [3]; morphine-dependent mice
  precipitated withdrawal effect (in words): inactivity
  sedative and muscle-relaxant effect (explaining inactivity in jumping test): simultaneous sedative and muscle-relaxant effect
Morphine [3]; morphine-dependent mice, tested at 0.1 - 3.13 mg/kg
  ED50, Precipitated Withdrawal Jumping Test (inactive, footnote 1): Inactive
Morphine [4]; rat, in vivo
  morphine-antagonistic activity, tail-flick test (in words), rats: marked activity
Morphine [4]; rat, in vivo, sc
  ED50, Morphine Antagonism-Tail-Flick Test, Rats: 3 mg/kg
electroshock
  muscle-relaxant and anti-convulsant effect in maximum electroshock test (in words): strong muscle-relaxant and anti-convulsant effect
  ED50, Maximal Electroshock Test: 4 mg/kg
Phenylquinone [5]
  ED50, writhing test, subchronic s.c., 30 min. p.i.: 0.4 mg/kg

## CN1CC[C@]23c4c5ccc(O)c4O[C@H]2[C@@H](O)C=C[C@H]3[C@H]1C5.O=S(=O)(O)O [morphine sulfate, reference compound]
Morphine [2]; sc
  morphine dose corresponding to the ED80, reaction times exceeding 95% value of controls: 12.5 mg/kg
Morphine [4]; rat, in vivo
  morphine dose corresponding to the ED99, reaction times exceeding 95% value of controls: 6.25 mg/kg

## O=C(CCCN1CCC(O)(c2ccc(Cl)cc2)CC1)c1ccc(F)cc1 [Haloperidol, reference compound]
apomorphine; Mus musculus, sc
  ED50: 0.1 mg/kg

## CNC1=Nc2ccc(Cl)cc2C(c2ccccc2)=[N+]([O-])C1 [Chlordiazepoxide, reference compound]
electroshock
  ED50: 12 mg/kg

## CCC12CCN(CC(C)O)C(Cc3ccc(O)cc31)C2C (single isomer, unassigned; (-)) [Compound C, (-)-5-ethyl-2'-hydroxy-2-(2-hydroxypropyl)-9-methyl-6,7-benzomorphan]
Morphine [2]
  morphine-antagonistic activity, tail-flick test (in words), mice: marked activity
Morphine [2]; sc
  ED50, Morphine Antagonism-Tail-Flick Test, Mice: 1 mg/kg
Morphine [3]; morphine-dependent mice
  precipitated withdrawal effect (in words): considerable activity
Morphine [3]; [11]
  ED50, Precipitated Withdrawal Jumping Test: 7 mg/kg
Morphine [4]; rat, in vivo
  morphine-antagonistic activity, tail-flick test (in words), rats: marked activity
Morphine [4]; rat, in vivo, sc
  ED50, Morphine Antagonism-Tail-Flick Test, Rats: 2 mg/kg

## CN1CC[C@]23c4c5ccc(O)c4O[C@H]2[C@@H](O)C=C[C@H]3[C@H]1C5 [Morphine, reference compound]
Phenylquinone [1]; [7]
  ED50, writhing test, acute p.o., 10 min. p.i.: 7 mg/kg
Phenylquinone [1]; [8]
  ED50, writhing test, acute p.o., 30 min. p.i.: 3 mg/kg
Phenylquinone [1]; [9]
  ED50, writhing test, acute s.c., 10 min. p.i.: 0.3 mg/kg
Phenylquinone [1]; [10]
  ED50, writhing test, acute s.c., 30 min. p.i.: 0.5 mg/kg
Phenylquinone [5]
  ED50, writhing test, subchronic s.c., 30 min. p.i.: 3 mg/kg

## CC(O)CN1CCC2(C)c3cc(O)ccc3CC1C2C (single isomer, unassigned; (-)) [Compound D, (-)-2'-hydroxy-2-(2-hydroxypropyl)-5,9-dimethyl-6,7-benzomorphan]
Morphine [2]
  morphine-antagonistic activity, tail-flick test (in words), mice: marked activity
Morphine [2]; sc
  ED50, Morphine Antagonism-Tail-Flick Test, Mice: 1 mg/kg
Morphine [3]; morphine-dependent mice
  precipitated withdrawal effect (in words): considerable activity
Morphine [3]; [11]
  ED50, Precipitated Withdrawal Jumping Test: 9 mg/kg
Morphine [4]; rat, in vivo
  morphine-antagonistic activity, tail-flick test (in words), rats: marked activity
Morphine [4]; rat, in vivo, sc
  ED50, Morphine Antagonism-Tail-Flick Test, Rats: 2 mg/kg

## C[C@H]1[C@H]2Cc3ccc(O)cc3[C@]1(C)CCN2CC1CC1 [Cyclazocine, reference compound]
apomorphine; Mus musculus, sc
  ED50: 6 mg/kg
Phenylquinone [1]; Mus musculus, po, 10 min, p.o., 10 min p.i., ED50 rounded, read-out: ED50, writhing test, acute p.o., 10 min. p.i.
  ED50: 6 mg/kg
Phenylquinone [1]; Mus musculus, po, 0.5 h, p.o., 30 min p.i., ED50 rounded, read-out: ED50, writhing test, acute p.o., 30 min. p.i.
  ED50: 8 mg/kg
Phenylquinone [1]; Mus musculus, sc, 10 min, s.c., 10 min p.i., ED50 rounded, read-out: ED50, writhing test, acute s.c., 10 min. p.i.
  ED50: 0.06 mg/kg
Phenylquinone [1]; Mus musculus, sc, 0.5 h, s.c., 30 min p.i., * = significant difference between acute and subchronic ED50 (p < 0.001), read-out: ED50, writhing test, acute s.c., 30 min. p.i.
  ED50: 0.09 mg/kg
Morphine [2]; sc
  ED50, Morphine Antagonism-Tail-Flick Test, Mice: 0.1 mg/kg
[6]
  properties of cyclazocine from the literature: narcotic partial antagonist of the benzomorphan series with analgesic; also recorded: antidepressant properties
Morphine [3]; morphine-dependent mice
  precipitated withdrawal effect (in words): inactivity
  sedative and muscle-relaxant effect (explaining inactivity in jumping test): simultaneous sedative and muscle-relaxant effect
Morphine [3]; morphine-dependent mice, tested at 0.55 - 3.13 mg/kg
  ED50, Precipitated Withdrawal Jumping Test (inactive, footnote 2): Inactive
Morphine [4]; Rattus norvegicus, sc, read-out: ED50, Morphine Antagonism-Tail-Flick Test, Rats
  ED50: 0.2 mg/kg
electroshock
  ED50: 2 mg/kg
  muscle-relaxant and anti-convulsant effect in maximum electroshock test (in words): strong muscle-relaxant and anti-convulsant effect

## C=CCN1CC[C@]23c4c5ccc(O)c4O[C@H]2C(=O)CC[C@@]3(O)[C@H]1C5 [Naloxone, reference compound]
Morphine [3]; Mus musculus, sc, morphine-dependent mice, criterion mean jumping frequency >1/minute
  ED50: 0.2 mg/kg
Morphine [3]; mice, solvent controls, naloxone 0.39 mg/kg, N = 80
  jumping frequency, solvent controls challenged with naloxone: 0.13 ± 0.06 min⁻¹

## CCC12CCN(CC(C)(C)O)C(Cc3ccc(O)cc31)C2C (single isomer, unassigned; (-)) [Compound A, (-)-5-ethyl-2'-hydroxy-2-(2-hydroxy-2-methylpropyl)-9-methyl-6,7-benzomorphan]
apomorphine; mice
  apomorphine-antagonistic activity compared with cyclazocine and pentazocine: markedly stronger activity than cyclazocine and pentazocine
  apomorphine-antagonistic activity compared with haloperidol: only slightly weaker effectiveness than haloperidol
apomorphine; sc
  ED50, Apomorphine Antagonism: 0.3 mg/kg
Phenylquinone [1]; [7]
  ED50, writhing test, acute p.o., 10 min. p.i.: 3 mg/kg
Phenylquinone [1]; [8]
  ED50, writhing test, acute p.o., 30 min. p.i.: 7 mg/kg
Phenylquinone [1]; [10]
  ED50, writhing test, acute s.c., 30 min. p.i.: 0.2 mg/kg
Phenylquinone [1]
  potency in writhing test compared with cyclazocine: at least equipotent with cyclazocine
  potency in writhing test compared with morphine: more potent than morphine
  potency in writhing test compared with pentazocine: appreciably more potent than pentazocine
electroshock
  muscle-relaxant and anti-convulsant effect in maximum electroshock test (in words): strong muscle-relaxant and anti-convulsant effect
  ED50, Maximal Electroshock Test: 8 mg/kg

## CN1CCc2cccc3c2[C@H]1Cc1ccc(O)c(O)c1-3 [apomorphine hydrochloride, reference compound]
apomorphine; Mus musculus, sc, mice, ED95, s.c., read-out: apomorphine dose corresponding to an ED95 for the production of stereotyped behavior in the head region
  ED95: 1.56 mg/kg

## O=C1C=CC(=O)C(c2ccccc2)=C1 [phenylquinone, reference compound]
Phenylquinone [1]; Mus musculus, ip, 10 min, ED95, intraperitoneal, maximum action within 10 minutes p.i., read-out: phenylquinone dosage corresponding to the ED95 for the evocation of writhing
  ED95: 2 mg/kg
